In US20030004211A1, “Carbohydrate modifying agent and drinks containing the modifying agent” (priority 2001, published 2003):

Assays:
[1] = system: mutans streptococci; experiment: in vitro growth and adherence of cariogenic bacteria (UCSF School of Preventive Dentistry study); format: cell-based; conditions: 0.5% zinc solution
Source text: (§1) In another preferred embodiment of the invention, the formulation includes one or more zinc salt or other source of the zinc ion. Metabolically, zinc is a critical nutrient in the synthesis of insulin and the metabolism of carbohydrates. From a dental perspective, cariogenic bacteria enzymatically produce an insoluble glucan deposit from simple sugars present in the mouth that firmly adheres to the enamel tooth surface.

[2] = system: sobrinus streptococci; experiment: as above; format: cell-based; conditions: 0.5% zinc solution
Source text: as §1

[Cl-].[Cl-].[Zn+2] [zinc chloride]
inhibited: adherence of mutans streptococci [1] | growth of mutans streptococci [1] | adherence of sobrinus streptococci [2] | growth of sobrinus streptococci [2]

zinc ascorbate
inhibited: adherence of mutans streptococci [1] | growth of mutans streptococci [1] | adherence of sobrinus streptococci [2] | growth of sobrinus streptococci [2]
